These are literature values, as cited in patent US8883844B2, “Nitric oxide releasing amino acid ester for treatment of pulmonary hypertension and other respiratory conditions” (Nitrogenix Inc., priority 2010, dated 2014).

The conditions of data set [1]: oral; 3, 6, 9 and 12 months.
For data set [2] the following is noted: open pilot study.

SMILES strings stand for the structures. Where two headings read alike, the source gives them in different places.

As to `CC#CCC(C)[C@H](O)/C=C/[C@@H]1[C@H]2c3cccc(CCCC(=O)O)c3O[C@H]2C[C@H]1O` (mixture of isomers) [Beraprost, beraprost], in data set [1], the “benefit in PAH” value is “benefit in a study in PAH at 3 and 6 months but not at 9 or 12 months”.

For `COc1ccccc1Oc1c(NS(=O)(=O)c2ccc(C(C)(C)C)cc2)nc(-c2ncccn2)nc1OCCO` [bosentan], the liver toxicity result (higher dose) is “liver toxicity occurred”. Moreover, under “two placebo controlled trials, whole group, improvement greater at higher doses”, the “six minute walk test” value is reported as “improved”.

Regarding `Cc1cc2c(cc1CC(=O)c1sccc1S(=O)(=O)Nc1onc(C)c1Cl)OCO2` [sitaxsentan], in data set [2], the “decrease in pulmonary vascular resistance” value is listed as 30% and the “six minute walk test” value is listed as “improvement”.
